Test results as given in publication PMC8419995, “In vitro and in vivo efficacy of thiacloprid against Echinococcus multilocularis” (Parasites & Vectors, 2021).

What was measured:
[1] = tested on: IL-2, IL-4, IL-10 and IgE; experiment: ELISA of cytokines and IgE in infected mice; format: in vivo; conditions: infected BALB/c mice, 6 weeks oral treatment
Experimental: (§1) In vitro-grown metacestode vesicles were pressed through a 500 µm mesh and washed three times with sterile PBS. The parasite tissue was then taken up in an equal volume of sterile PBS. Each mouse was intraperitoneally injected with 200 μl suspension. Seven mice were injected with 200 μl PBS as the control group. Twenty-eight infected mice were randomly distributed into four groups (7 mice/group): the untreated group was not administered any drug; the ABZ group was treated with ABZ orally (100 mg/kg/day); and the Thia15 group and Thia30 group received thiacloprid orally (15 mg/kg/day and 30 mg/kg/day). Treatments of mice started 2 weeks post-infection, and treatments were administered daily for 6 weeks. After 6 weeks of treatment, whole blood via the orbital sinus was collected from mice and the animals were euthanized by CO2. Blood samples were incubated at 37 °C for 1 h and centrifuged at 3500 rpm for 10 min at 4 °C. The serum was harvested and stored at –20 °C for IL-2, IL-4, IL-10 and IgE detection. All metacestode tissues were collected, and the total wet weight of metacestodes per mice was determined. Furthermore, the content of cytokines in microcyst fluid was detected by enzyme-linked immunosorbent assay (ELISA). Several metacestode tissue specimens were processed for transmission electron microscopy (TEM) and histopathological experiments.
ELISA was employed to detect serum IL-2, IL-4, IL-10 and IgE following the manufacturer's instructions. Mouse collagen I and collagen III ELISA kits were used to measure the levels of collagen I and collagen III in the cell culture supernatant after intervention with thiacloprid. All ELISA kits were provided by Elabscience Biotechnology Co., Ltd., Wuhan, China. The OD value at 450 nm was read with a Tecan Infinite M200 PRO enzyme reader (Männedorf, Switzerland), and the concentration was calculated according to the standard curve.

[2] = tested on: E. multilocularis metacestodes; experiment: In vivo treatment of mice experimentally infected with E. multilocularis metacestodes; parameters: species or system Echinococcus multilocularis; conditions: for Wet weight of the metacestodes: infected BALB/c mice, untreated 6.49 ± 1.18 g
Experimental: as §1
Tissues from experimental animals were washed in PBS and fixed in 4% paraformaldehyde at room temperature for […]. On the next day, they were dehydrated, embedded, and sliced into 5-μm sections. After dewaxing and dehydrating, sections were stained with hematoxylin for 2–5 min, and re-stained with eosin for 15 s. They were sealed with neutral gum and observed under a BX51 microscope (Olympus, Tokyo, Japan).
A Periodic Acid Schiff Stain Kit (Solarbio, Beijing, China) was used to show the PAS-positive laminated layer characteristic of E. multilocularis metacestodes. The section (5 μm) was dewaxed in xylene and rehydrated in 100%, 95%, 80%, and 75% alcohol baths. Staining was then carried out according to the kit instructions.

## N#C/N=C1\SCCN1Cc1ccc(Cl)nc1 [thiacloprid]
[1]
  Expression of IL-2, IL-4 and IL-10 in microcyst fluid: upregulated
  Expression of IL-2, IL-4 and IL-10 in serum compared with the untreated group: upregulated
  Expression of IgE in serum compared with the untreated group: downregulated
[2]; 6 weeks oral treatment
  PAS staining of laminated layer of metacestodes from treated mice: only a few laminated layers were observed
[2]; 6 weeks oral treatment, thiacloprid 15 or 30 mg/kg/day, ABZ 100 mg/kg/day
  HE staining of metacestodes from treated mice: Considerable vacuoles
[2]; thiacloprid 15 mg/kg/day orally, 6 weeks (Thia15 group)
  Wet weight of the metacestodes: 1.63 ± 0.62 g
[2]; thiacloprid 30 mg/kg/day orally, 6 weeks (Thia30 group)
  Wet weight of the metacestodes: 1.63 ± 0.61 g
